{"source": "paper PMC2999418", "about": "“Biological Activity and Binding Site Characteristics of the PA1b Entomotoxin on Insects from Different Orders” (Journal of Insect Science, 2007)", "key": {"pronase E type XIV": {"test_system": "pronase E type XIV", "experiment": "PA1b degradation assay with commercial protease", "type": "in vitro ADME", "details": "10 µg pronase E, 37°C, one night incubation, C18 HPLC", "method": "PA1b degradation assays were performed using 10 µg of peptide (PA1b isoform mixture) in a final volume of 100 µl buffer. Assays with commercially (SIGMA, www.sigmaaldrich.com) available enzymes were performed in Glycine-NaOH buffer (20 mM pH 9) at 3O°C for proteinase K (E.C. 3.4.21.64), Tris-HCl buffer (20 mM pH 7.5) + EDTA 10 mM at 37°C for pronase E type XIV, MES-NaOH buffer (20 mM pH 6.2) at 25°C for papain (E.C. 3.4.22.2), Tris-HCl buffer (20 mM pH 7.8) at 25°C for chymotrypsin (E.C. 3.4.21.1), and Tris-HCl buffer (20 mM pH 7.6) at 25°C for trypsin (E.C. 3.4.21.4). Assays were done with 10 µg of each enzyme, and control assays were performed with 10 µg of enzymes denaturated by 10 min boiling. Assays with insect extracts were carried out in 20 mM buffers from pH 3 to 9 (Glycine-HCl, pH 3; sodium acetate pH 4-5; MES-NaOH pH 6; Tris-HCl pH 7-8; Glycine NaOH pH 9) at 3O°C. […]\n(§1) For all assays, after a one night incubation, 150 µl of methanol were added to the mixture and incubated for 60 min at 4°C. […] PA1b peptide isoforms were detected by their absorbance at 210 nm, quantified by the measurement of the peak area and with reference to known quantities of pure peptide isoform used as standards."}, "[1]": {"test_system": "M. brassicae protein extracts", "experiment": "PA1b degradation assay with total insect protein extract", "type": "in vitro ADME, Mamestra brassicae", "details": "200 µg M. brassicae (L3) total protein extract, 10 µg PA1b, pH 3 to 9, 30°C, one night incubation; C18 HPLC; data not shown", "method": "(§2) The isolation of membrane proteins for binding studies was performed as described by Gressent et al. ([2003]). For PA1b degradation tests, insect extracts were prepared as follows, 1 g of insects were ground with a mortar and pestle in liquid nitrogen. The resulting powder was resuspended in 2 ml of extraction buffer (20 mM Tris-HCl pH 8; 0.25 M sucrose; 2 mM MgCl2). The slurry was centrifuged for 2 min at 1000 g, and the supernatant was stored at -2O°C until required. All the operations were performed at 4°C.\n(§3) PA1b degradation assays were performed using 10 µg of peptide (PA1b isoform mixture) in a final volume of 100 µl buffer. […]\nas §1"}, "Culex pipiens": {"test_system": "Culex pipiens", "experiment": "Mosquito larval bioassay, toxin added to water", "type": "in vivo", "details": "250 µg.ml^-1 of water", "method": "The mosquito bioassay was performed on larvae of Culex pipiens (Diptera) in water. The toxin was added directly to the water, and the mortality of L3 larvae was recorded daily.\nAll toxicity assays were carried out using a mixture of PA1b isoforms (98% purity by HPLC). All tests were performed on at least 30 insects for assays and for control test (without toxin), except for the three aphid species (50 insects) and for Trichogramma (more than 300 eggs by assays). When adults were used, the insects were synchronized at the imaginal molt. The statistical analyses were performed using the JMP software (SAS, Grégy-sur-Yerres FRA)."}, "[2]": {"target": "PA1b binding protein on membrane extracts", "experiment": "125I-PA1b binding (competition) on insect membrane extracts", "parameters": "species or system Bruchus pisorum", "details": "B. pisorum membrane extracts; competition with purified 3741 isoform", "method": "as §2\n(§4) The peptidic toxin PA1b-3471 isoform was labelled with I^125 to a specific radioactivity of about 900 Ci.mmor^-1, and then used for binding studies with membrane extracts, according to Gressent et al. ([2003]).\n(§5) PA1b binding activity was present in all insect species, except for the resistant weevil strains and the pea specific pest Bruchus pisorum, regardless of the sensitivity or insensitivity of these insects to PA1b toxicity, as evaluated from our insect bioassays. […] The relative abundance of the binding sites was also slightly different in this group of species, varying from 10 pmol/mg of protein for T. pretiosum to a maximum of 79 pmol/mg of protein for M. persicae."}, "[3]": {"target": "PA1b binding protein on membrane extracts", "experiment": "125I-PA1b binding (competition) on insect membrane extracts", "parameters": "species or system Trichogramma pretiosum", "details": "T. pretiosum membrane extracts; competition with purified 3741 isoform", "method": "as §2, §4, §5"}, "[4]": {"target": "PA1b binding protein on membrane extracts", "experiment": "125I-PA1b binding (competition) on insect membrane extracts", "parameters": "species or system Tribolium castaneum", "details": "T. castaneum membrane extracts; competition with purified 3741 isoform", "method": "as §2, §4, §5"}, "[5]": {"test_system": "midgut extracts from sensitive or resistant S. oryzae", "details": "ref Delobel and Rahbé, personnal communication; cited from earlier work", "excerpt": "Stating that the binding activity is widely present, while the toxicity is not, directly implies that other factors strongly influence the toxin toxicity. Pre-binding effects, such as toxin stability in the insect digestive tract, have been commonly described, either for bacterial toxins ([Keller et al. 1996]) or enzyme inhibitors ([Girard et al. 1998]). Although the structural features of PA1b, such as its cystine-knot core ([Jouvensal et al. 2003]), are known to confer high thermal, chemical and proteolytic stability ([Delobel et al. 1998]) the latter point was investigated using commercial ..."}, "C. glabrata": {"test_system": "C. glabrata", "experiment": "Antifungal test, fungal growth", "type": "cell-based", "details": "increasing toxin concentration up to 64 µg-ml^-1, 24 and 48 hours", "method": "(§6) A possible antimicrobial and antifungal activity of PA1b was next tested on four bacterial and three fungal species. The experiments were done using an increasing toxin concentration, up to 64 µg-ml^-1."}, "C. albicans": {"test_system": "C. albicans", "experiment": "Antifungal test, fungal growth", "type": "cell-based", "details": "increasing toxin concentration up to 64 µg-ml^-1, 24 and 48 hours", "method": "as §6"}, "A. famigatus": {"test_system": "A. famigatus", "experiment": "Antifungal test, fungal growth", "type": "cell-based", "details": "increasing toxin concentration up to 64 µg-ml^-1, 24 and 48 hours", "method": "as §6"}, "[6]": {"target": "PA1b binding protein on membrane extracts", "experiment": "125I-PA1b binding (competition) on insect membrane extracts", "parameters": "species or system Drosophila melanogaster", "details": "D. melanogaster membrane extracts; competition with purified 3741 isoform", "method": "as §2, §4, §5"}, "[7]": {"target": "PA1b binding protein on membrane extracts", "experiment": "125I-PA1b binding (competition) on insect membrane extracts", "parameters": "species or system Ephestia kuehniella", "details": "E. kuehniella membrane extracts; competition with purified 3741 isoform", "method": "as §2, §4, §5"}, "[8]": {"test_system": "D. melanogaster protein extracts", "experiment": "PA1b degradation assay with total insect protein extract", "type": "in vitro ADME, Drosophila melanogaster", "details": "200 µg D. melanogaster (L3) total protein extract, 10 µg PA1b, pH 3 to 9, 30°C, one night incubation; C18 HPLC; data not shown", "method": "as §2, §3, §1"}}, "data": [{"sequence": "ASCNGVCSPFEMPPCGTSACRCIPVGLVIGYCR NPSG (bicyclic or more) [PA1b, plant peptide of 37 amino acids purified from pea (Pisum sativum) seeds; entomotoxic cystine-knot peptide with three disulfide bonds]", "values": [{"measurement": "PA1b recovered after pronase E treatment, relative to control", "setting": "pronase E type XIV; 10 µg PA1b, Tris-HCl pH 7.5 + EDTA 10 mM", "value": "20 % of the control"}, {"measurement": "Recovered PA1b, Assays", "setting": "pronase E type XIV; 10 µg PA1b isoform mixture in 100 µl Tris-HCl 20 mM pH 7.5 + EDTA 10 mM, UV 210 nm, mean of triplicates", "value": 1.7, "unit": "µg"}, {"measurement": "recovered PA1b after incubation with insect proteins versus heat-denatured control", "setting": "[1]", "value": "without any difference between control and test assays"}, {"measurement": "survival of L3 larvae", "setting": "Culex pipiens; after one day", "value": 100, "unit": "%"}, {"measurement": "survival of L3 larvae", "setting": "Culex pipiens; after two days", "value": 0, "unit": "%"}, {"measurement": "Kd / binding", "setting": "[2]", "value": "no binding detectable"}, {"measurement": "Kd", "setting": "[3]", "value": 56, "unit": "nM"}, {"measurement": "Kd", "setting": "[4]", "value": 11, "unit": "nM"}, {"measurement": "activity of midgut extracts on PA1b", "setting": "[5]", "value": "do not show any activities on PA1b"}, {"measurement": "effect on fungal growth", "setting": "C. glabrata", "value": "no effect was detected"}, {"measurement": "effect on fungal growth", "setting": "C. albicans", "value": "no effect was detected"}, {"measurement": "effect on fungal growth", "setting": "A. famigatus", "value": "no effect was detected"}, {"measurement": "Kd", "setting": "[6]", "value": 16, "unit": "nM"}, {"measurement": "Kd", "setting": "[7]", "value": 20, "unit": "nM"}, {"measurement": "recovered PA1b after incubation with insect proteins versus heat-denatured control", "setting": "[8]", "value": "without any difference between control and test assays"}]}]}
